Data from patent publication US20240140986A1, “SYNTHETIC URSOLIC ACID DERIVATIVES AND METHODS OF USE THEREOF” (REATA PHARMACEUTICALS, INC., priority 2021, published 2024).
Read-outs that look alike come from different tables or passages of the source. Values belong to the compound of their own block, whether it stands above or below them.

Legend:
[1] = test system: Nrf2 / ARE-dependent luciferase in AREc32 reporter cell line; assay: AREc32 luciferase reporter activation (Nrf2 induction); type: cell-based, human; details: for EC (2-fold): Homo sapiens, Arec32; for Relative Avg AREc32 EC2X Relative to RTA402 (fold): ratio to RTA402
Procedure: Effect on Ludferase Reporter Activation. Nrf2 is a transcription factor that binds to the antioxidant response element (ARE) sequence in the promoter regions of its target genes. AREc32 reporter cell line (derived from human breast carcinoma MCF7 cells) was obtained was from CXR Bioscience Limited (Dundee, UK) and cultured in DMEM (low glucose) supplemented with 10% FBS, 1% penicillin/streptomycin, and 0.8 mg/ml Geneticin (G418). This cell line is stably transfected with a luciferase reporter gene under the transcriptional control of eight copies of the rat GSTA2 ARE sequence (5′-GTGACAAAGCA-3′) (Wang et al., 2006). Expression of Firefly luciferase from this reporter plasmid is controlled by binding of Nrf2 to these ARE sequences. Measurement of ARE-dependent luciferase activity allows quantitative assessment of Nrf2 induction. AREc32 cell line has previously been used in studies characterizing different Nrf2 activators (Dinkova-Kostova & Wang, 2011; Roubalová et al., 2016; Roubalová et al, 2017; Wu et al, 2012).
The effect of several compounds disclosed herein on luciferase reporter activation was assessed in the AREc32 reporter cell line (see Table 10 and Table 11). This cell line is derived from human breast carcinoma MCF-7 cells and is stably transfected with a luciferase reporter gene under the transcriptional control of eight copies of the antioxidant response element from the rat Gsta2 gene, an Nrf2 target gene (Frilling et al., 1990). AREc32 cells were plated in black 96-well plates in 200 μL media at 20,000 cells per well. Twenty-four hours after plating, cells were treated with vehicle (DMSO) or test compounds at concentrations ranging from 0.03 to 1000 nM for nineteen hours. Media was removed and 100 μL of 1:1 mixture of the One-Glo Luciferase assay reagent and culture medium was added to each well. After incubation for 5 min at room temperature, the luminescence signal was measured on a PHERAstar plate reader. The EC2X value was determined using Excel and GraphPad Prism software. The fold increase in luminescence signal for cells treated with each concentration of compound relative to cells treated with vehicle was determined and a dose-response curve was generated. The dose-response curve was fit using nonlinear regression analysis and used to extrapolate the EC2X value. The EC2X value is defined as the concentration of test compound required to increase the luminescence signal 2-fold above levels in vehicle-treated samples.

[2] = test system: IFNγ-induced NO production in RAW 264.7 cells; assay: Nitric Oxide Suppression Assay (IFNγ-induced NO, Griess nitrite readout); type: cell-based, mouse; details: for IC50: Mus musculus, read-out: Avg NO IC50 (nM) (Mean ± SD); for Avg NO IC50 Relative to RTA402 (fold): Table 2, ratio to RTA402
Procedure: Tissue Culture: RAW 264.7, a mouse macrophage cell line, was obtained from American Type Culture Collection (Manassas VA) and maintained in the log phase of growth in Roswell Park Memorial Institute Medium 1640 (RPMI 1640) supplemented with 10% heat inactivated fetal bovine serum and 1% penicillin-streptomycin. Cells were cultured and maintained in a humidified incubator at 37° C. under 5% C02. Cells were sub-cultured every 2-4 days. All cell culture supplies were obtained from Life Technologies (Grand Island, NY) and VWR (Radnor, PA).
Nitric Oxide Suppression Assay. RAW 264.7 cells were plated 1 day in advance of experimental treatments at a concentration of 30,000 cells per well onto Falcon-96 well clear bottom plates (Corning, NY) in a total volume of 200 μL per well using RPMI 1640 supplemented with 0.5% fetal bovine serum and 1% penicillin-streptomycin. The next day, cells were pretreated with compounds serially diluted from 1000×stocks. All compounds were dissolved in dimethyl sulfoxide (DMSO) usually at 10 mM stock solutions. Compounds were subsequently diluted in DMSO and RPMI 1640. Each well received a final concentration of 0.1% DMSO. Cells were pretreated for 2 hours and incubation at 37° C., followed by treatment with 20 ng/mL of interferon gamma (R&D Systems, Minneapolis, MN) per well for 24 hours. The next day, a nitrite standard was serially diluted from 100 μM to 1.6 μM in RPMI 1640. Afterwards, 50 μL of cell culture supernatant was transferred from each well into a new Falcon-96 well clear bottom plate. Nitrite was measured as surrogate for nitric oxide using Promega's Griess Detection Kit #G2930 (Madison, WI) which involves the addition of 50 μL of the provided sulfanilamide solution to each well of the transferred cell culture supernatant and standards, followed by a 10-minute incubation at room temperature. Next, 50 μL of the provided N-1-napthylethylenediamine dihydrochloride (NED) solution was added to the sulfanilamide reaction and incubated for 10 minutes at room temperature in the dark. Afterwards, air bubbles were removed using ethanol vapor and absorbance was measured using a Spectramax M2e plate reader with a wavelength set to 525 nm. Viability was assessed using WST-1 cell proliferation reagent from Roche (Basel, Switzerland). After media was removed for the Nitric Oxide suppression assay, 15 μL of WST-1 reagent was added to each well of cells. Plates were briefly mixed on an orbital shaker and the cells were incubated at 37° C. for 30-90 minutes. Absorbance was measured using a Spectramax M2e plate reader with wavelengths set to 440 nm and 700 nm.
For the ability of compounds to suppress the increase in nitric oxide release caused by interferon gamma, the absolute amount of nitrite that was produced in each well was extrapolated from the nitrite standards using a linear regression fit. All values were then normalized to the DMSO-interferon gamma treated wells and plotted as percent nitric oxide. IC50 values were calculated using Excel and/or GraphPad Prism (San Diego, CA).

[3] = Table 2, concentration increasing luminescence 2-fold above vehicle, 19 h treatment, read-out: Avg AREc32 EC2X (nM) (Mean ± SD)
[4] = Table 3, ursolic acid derivatives, read-out: Avg ARE EC-2X (nM) (Mean ± SD)
[5] = RAW264.7, Table 2, RAW 264.7 cells, 2 h pretreatment, 20 ng/mL interferon gamma 24 h
[6] = RAW264.7, Table 3, ursolic acid derivatives

Compound: C[C@@H]1[C@H]2[C@H]3C(=O)C=C4[C@@]5(C)C=C(C#N)C(=O)C(C)(C)[C@@H]5CC[C@@]4(C)[C@]3(C)CC[C@@]2(c2nc(COC(C)(C)C)no2)CC[C@H]1C [Compound T9]
EC (2-fold) [1, 3]: 19.3 ± 4.5 nM
Relative Avg AREc32 EC2X Relative to RTA402 (fold) ([1]; Table 2): 1.84 ± 0.20 fold
IC50 [2, 5]: 11.3 ± 2.4 nM
Avg NO IC50 Relative to RTA402 (fold) [2]: 5.37 ± 0.71 fold

Compound: C[C@@H]1[C@H]2[C@H]3C(=O)C=C4[C@@]5(C)C=C(C#N)C(=O)C(C)(C)[C@@H]5CC[C@@]4(C)[C@]3(C)CC[C@@]2(c2nc(CO)no2)CC[C@H]1C [Compound T10]
EC (2-fold) [1, 3]: 2.4 ± 0.3 nM
EC (2-fold) [1, 4]: 2.4 ± 0.3 nM
Relative Avg AREc32 EC2X Relative to RTA402 (fold) ([1]; Table 2): 0.193 ± 0.024 fold
IC50 [2, 5]: 2.08 ± 0.14 nM
IC50 [2, 6]: 2.08 ± 0.14 nM
Avg NO IC50 Relative to RTA402 (fold) [2]: 1.45 ± 0.28 fold

Compound: C[C@@H]1[C@H]2[C@H]3C(=O)C=C4[C@@]5(C)C=C(C#N)C(=O)C(C)(C)[C@@H]5CC[C@@]4(C)[C@]3(C)CC[C@@]2(c2nc(CF)no2)CC[C@H]1C [Compound T11]
EC (2-fold) [1, 3]: 8.74 ± 2.61 nM
Relative Avg AREc32 EC2X Relative to RTA402 (fold) ([1]; Table 2): 0.685 ± 0.050 fold
IC50 [2, 5]: 4.33 ± 1.45 nM
Avg NO IC50 Relative to RTA402 (fold) [2]: 2.10 ± 0.49 fold

Compound: C[C@@H]1[C@H]2[C@H]3C(=O)C=C4[C@@]5(C)C=C(C#N)C(=O)C(C)(C)[C@@H]5CC[C@@]4(C)[C@]3(C)CC[C@@]2(CN2CCC2=O)CC[C@H]1C [Compound T14]
EC (2-fold) [1, 3]: 3.91 ± 0.52 nM
EC (2-fold) [1, 4]: 3.91 ± 0.52 nM
Relative Avg AREc32 EC2X Relative to RTA402 (fold) ([1]; Table 2): 0.349 ± 0.018 fold
IC50 [2, 5]: 2.4 ± 1.2 nM
IC50 [2, 6]: 2.4 ± 1.2 nM
Avg NO IC50 Relative to RTA402 (fold) [2]: 1.27 ± 0.31 fold

Compound: C[C@@H]1[C@H]2[C@H]3C(=O)C=C4[C@@]5(C)C=C(C#N)C(=O)C(C)(C)[C@@H]5CC[C@@]4(C)[C@]3(C)CC[C@@]2(NC(=O)C(C)(F)F)CC[C@H]1C [Compound T17]
EC (2-fold) [1, 3]: 22.9 ± 2.6 nM
Relative Avg AREc32 EC2X Relative to RTA402 (fold) ([1]; Table 2): 1.92 ± 0.74 fold
IC50 [2, 5]: 15 ± 5.8 nM
Avg NO IC50 Relative to RTA402 (fold) [2]: 5.83 ± 1.26 fold

Compound: CC(=O)N[C@]12CC[C@@H](C)[C@H](C)[C@H]1[C@H]1C(=O)C=C3[C@@]4(C)C=C(C#N)C(=O)C(C)(C)[C@@H]4CC[C@@]3(C)[C@]1(C)CC2 [Compound T18]
EC (2-fold) [1, 3]: 27.3 ± 5.8 nM
Relative Avg AREc32 EC2X Relative to RTA402 (fold) ([1]; Table 2): 1.97 ± 0.24 fold
IC50 [2, 5]: 23 ± 4.1 nM
Avg NO IC50 Relative to RTA402 (fold) [2]: 13.7 ± 5.76 fold

Compound: C[C@@H]1[C@H]2[C@H]3C(=O)C=C4[C@@]5(C)C=C(C#N)C(=O)C(C)(C)[C@@H]5CC[C@@]4(C)[C@]3(C)CC[C@@]2(CNC(=O)C2CC2)CC[C@H]1C [Compound T19]
EC (2-fold) [1, 3]: 2.27 ± 0.52 nM
EC (2-fold) [1, 4]: 2.27 ± 0.52 nM
Relative Avg AREc32 EC2X Relative to RTA402 (fold) ([1]; Table 2): 0.224 ± 0.072 fold
IC50 [2, 5]: 2.33 ± 1.47 nM
IC50 [2, 6]: 2.33 ± 1.47 nM
Avg NO IC50 Relative to RTA402 (fold) [2]: 0.74 ± 0.14 fold

Compound: C[C@@H]1[C@H]2[C@H]3C(=O)C=C4[C@@]5(C)C=C(C#N)C(=O)C(C)(C)[C@@H]5CC[C@@]4(C)[C@]3(C)CC[C@@]2(CNC(=O)OC(C)(C)C)CC[C@H]1C [Compound T20]
EC (2-fold) [1, 3]: 21.5 ± 4.6 nM
EC (2-fold) [1, 4]: 21.5 ± 4.6 nM
Relative Avg AREc32 EC2X Relative to RTA402 (fold) ([1]; Table 2): 1.83 ± 0.41 fold
IC50 [2, 5]: 12.9 ± 4.6 nM
IC50 [2, 6]: 12.9 ± 4.6 nM
Avg NO IC50 Relative to RTA402 (fold) [2]: 3.72 ± 0.60 fold

More lines, main results first:

IC50 [2, 5]: 3.33 ± 0.68 nM
IC50 [2, 6]: 3.33 ± 0.68 nM
Avg NO IC50 Relative to RTA402 (fold) [2]: 1.59 ± 0.20 fold
Compound: C[C@@H]1[C@H]2[C@H]3C(=O)C=C4[C@@]5(C)C=C(C#N)C(=O)C(C)(C)[C@@H]5CC[C@@]4(C)[C@]3(C)CC[C@@]2(c2nc(CN(C)C)no2)CC[C@H]1C [Compound T8]
EC (2-fold) [1, 3]: 3.72 ± 0.97 nM
EC (2-fold) [1, 4]: 3.72 ± 0.97 nM
Relative Avg AREc32 EC2X Relative to RTA402 (fold) ([1]; Table 2): 0.321 ± 0.059 fold

IC50 [2, 5]: 6.75 ± 2.19 nM
Avg NO IC50 Relative to RTA402 (fold) [2]: 3.29 ± 0.81 fold
Compound: C[C@H]1[C@H](C)CCC23CC[C@@]4(C)[C@]5(C)CC[C@H]6C(C)(C)C(=O)C(C#N)=C[C@]6(C)C5=CC(=O)[C@]4(OC2)[C@H]13 [Compound T12]
EC (2-fold) [1, 3]: 9.2 ± 2.7 nM
Relative Avg AREc32 EC2X Relative to RTA402 (fold) ([1]; Table 2): 0.724 ± 0.074 fold

IC50 [2, 5]: 1.86 ± 0.32 nM
IC50 [2, 6]: 1.86 ± 0.32 nM
Avg NO IC50 Relative to RTA402 (fold) [2]: 1.25 ± 0.21 fold
Compound: C[C@@H]1[C@H]2[C@H]3C(=O)C=C4[C@@]5(C)C=C(C#N)C(=O)C(C)(C)[C@@H]5CC[C@@]4(C)[C@]3(C)CC[C@@]2(CO)CC[C@H]1C [Compound T13]
EC (2-fold) [1, 3]: 4.95 ± 0.63 nM
EC (2-fold) [1, 4]: 4.95 ± 0.63 nM
Relative Avg AREc32 EC2X Relative to RTA402 (fold) ([1]; Table 2): 0.358 ± 0.016 fold

IC50 [2, 5]: 4.2 ± 2.4 nM
IC50 [2, 6]: 4.2 ± 2.4 nM
Avg NO IC50 Relative to RTA402 (fold) [2]: 1.99 ± 0.20 fold
Compound: C[C@@H]1[C@H]2[C@H]3C(=O)C=C4[C@@]5(C)C=C(C#N)C(=O)C(C)(C)[C@@H]5CC[C@@]4(C)[C@]3(C)CC[C@@]2(CN2CCCC2=O)CC[C@H]1C [Compound T15]
EC (2-fold) [1, 3]: 5.21 ± 1.11 nM
EC (2-fold) [1, 4]: 5.21 ± 1.11 nM
Relative Avg AREc32 EC2X Relative to RTA402 (fold) ([1]; Table 2): 0.447 ± 0.085 fold

IC50 [2, 5]: 15 ± 3.7 nM
IC50 [2, 6]: 15 ± 3.7 nM
Avg NO IC50 Relative to RTA402 (fold) [2]: 7.63 ± 2.99 fold
Compound: C[C@@H]1[C@H]2[C@H]3C(=O)C=C4[C@@]5(C)C=C(C#N)C(=O)C(C)(C)[C@@H]5CC[C@@]4(C)[C@]3(C)CC[C@@]2(N)CC[C@H]1C [Compound T16]
EC (2-fold) [1, 3]: 20.5 ± 6 nM
EC (2-fold) [1, 4]: 20.5 ± 6 nM
Relative Avg AREc32 EC2X Relative to RTA402 (fold) ([1]; Table 2): 1.61 ± 0.084 fold
